“And” between values parts separate entries of the source, which are not always exact repeats. Identical values can stand only once.
Assays:
Solanum [1] = assay: Herbicidal action before plant emergence (pre-emergence action); assay type: in vivo; parameters: key: 1=complete damage; 9=no effect; Score figures of 1 to 4 (in particular 1 to 3) signify a good to very good herbicidal action; details: 2000 g a.i./ha sprayed immediately after sowing; evaluated after 3 weeks; nine-level key (1=complete damage, 9=no effect)
Description: (§1) Monocotyledonous and dicotyledonous test plants are sown in standard soil in plastic pots. Immediately after sowing, the test substances are sprayed on as aqueous suspensions (prepared from a 25% strength wettable powder (Example F3, b) in accordance with WO 97/34485) or as emulsions (prepared from a 25% strength emulsion concentrate (Example F1, c) in accordance with WO 97/34485), corresponding to a dosage of 2 kg of a.i./ha (500 l of water/ha). The test plants are subsequently grown in the greenhouse under optimal conditions. After a test period of 3 weeks, the experiment is evaluated using a nine-level key (1=complete damage, 9=no effect). Score figures of 1 to 4 (in particular 1 to 3) signify a good to very good herbicidal action.
(§2) Test plants: Lolium, Setaria, Sinapis, Solanum, Stellaria, Ipomea.

Sinapis [2] = assay: as above; assay type: in vivo; parameters: key: 1=complete damage; 9=no effect; Score figures of 1 to 4 (in particular 1 to 3) signify a good to very good herbicidal action; details: 2000 g a.i./ha sprayed immediately after sowing; evaluated after 3 weeks; nine-level key (1=complete damage, 9=no effect)
Description: as §1, §2

Lolium [3] = assay: as above; assay type: in vivo; parameters: key: 1=complete damage; 9=no effect; Score figures of 1 to 4 (in particular 1 to 3) signify a good to very good herbicidal action; details: 2000 g a.i./ha sprayed immediately after sowing; evaluated after 3 weeks; nine-level key (1=complete damage, 9=no effect)
Description: as §1, §2

Stellaria [4] = assay: as above; assay type: in vivo; parameters: key: 1=complete damage; 9=no effect; Score figures of 1 to 4 (in particular 1 to 3) signify a good to very good herbicidal action; details: 2000 g a.i./ha sprayed immediately after sowing; evaluated after 3 weeks; nine-level key (1=complete damage, 9=no effect)
Description: as §1, §2

Setaria [5] = assay: as above; assay type: in vivo; parameters: key: 1=complete damage; 9=no effect; Score figures of 1 to 4 (in particular 1 to 3) signify a good to very good herbicidal action; details: 2000 g a.i./ha sprayed immediately after sowing; evaluated after 3 weeks; nine-level key (1=complete damage, 9=no effect)
Description: as §1, §2

Ipomoea [6] = assay: as above; assay type: in vivo; parameters: key: 1=complete damage; 9=no effect; Score figures of 1 to 4 (in particular 1 to 3) signify a good to very good herbicidal action; details: 2000 g a.i./ha sprayed immediately after sowing; evaluated after 3 weeks; nine-level key (1=complete damage, 9=no effect)
Description: as §1, §2

Solanum [7] = assay: Post-emergence herbicidal action; assay type: in vivo; parameters: key: 1=complete damage; 9=no effect; Score figures of 1 to 4 (in particular 1 to 3) signify a good to very good herbicidal action; details: dose 2000 g a.i./ha; sprayed at 4- to 6-leaf stage; evaluated after approximately 18 days; nine-level key (1=complete damage, 9=no effect)
Experimental: (§3) Monocotyledonous and dicotyledonous test plants are grown in the greenhouse in plastic pots containing standard soil and, in the 4- to 6-leaf stage, sprayed with an aqueous suspension of the test substances of the formula I, prepared from a 25% strength wettable powder (Example F3, b) in accordance with WO 97/34485) or with an emulsion of the test substances of the formula I, prepared from a 25% strength emulsion concentrate (Example F1, c) in accordance with WO 97/34485), corresponding to a dosage of 2 kg/ a.i./ha (500 l of water/ha). The test plants are subsequently grown on in the greenhouse under optimal conditions. After a test period of approximately 18 days, the experiment is evaluated using a nine-level key (1=complete damage, 9=no effect). Score figures of 1 to 4 (in particular 1 to 3) signify a good to very good herbicidal action.
as §2

Sinapis [8] = assay: Post-emergence herbicidal action; assay type: in vivo; parameters: key: 1=complete damage; 9=no effect; Score figures of 1 to 4 (in particular 1 to 3) signify a good to very good herbicidal action; details: dose 2000 g a.i./ha; sprayed at 4- to 6-leaf stage; evaluated after approximately 18 days; nine-level key (1=complete damage, 9=no effect)
Experimental: as §3, §2

Lolium [9] = assay: Post-emergence herbicidal action; assay type: in vivo; parameters: key: 1=complete damage; 9=no effect; Score figures of 1 to 4 (in particular 1 to 3) signify a good to very good herbicidal action; details: dose 2000 g a.i./ha; sprayed at 4- to 6-leaf stage; evaluated after approximately 18 days; nine-level key (1=complete damage, 9=no effect)
Experimental: as §3, §2

Stellaria [10] = assay: Post-emergence herbicidal action; assay type: in vivo; parameters: key: 1=complete damage; 9=no effect; Score figures of 1 to 4 (in particular 1 to 3) signify a good to very good herbicidal action; details: dose 2000 g a.i./ha; sprayed at 4- to 6-leaf stage; evaluated after approximately 18 days; nine-level key (1=complete damage, 9=no effect)
Experimental: as §3, §2

Setaria [11] = assay: Post-emergence herbicidal action; assay type: in vivo; parameters: key: 1=complete damage; 9=no effect; Score figures of 1 to 4 (in particular 1 to 3) signify a good to very good herbicidal action; details: dose 2000 g a.i./ha; sprayed at 4- to 6-leaf stage; evaluated after approximately 18 days; nine-level key (1=complete damage, 9=no effect)
Experimental: as §3, §2

Ipomoea [12] = assay: Post-emergence herbicidal action; assay type: in vivo; parameters: key: 1=complete damage; 9=no effect; Score figures of 1 to 4 (in particular 1 to 3) signify a good to very good herbicidal action; details: dose 2000 g a.i./ha; sprayed at 4- to 6-leaf stage; evaluated after approximately 18 days; nine-level key (1=complete damage, 9=no effect)
Experimental: as §3, §2

Row | melting point | Structure (SMILES) | Pre-emergence action, score, test plant Solanum (Solanum [1]) | Pre-emergence action, score, test plant Sinapis (Sinapis [2]) | Pre-emergence action, score, test plant Lolium (Lolium [3]) | Pre-emergence action, score, test plant Stellaria (Stellaria [4]) | Pre-emergence action, score, test plant Setaria (Setaria [5]) | Pre-emergence action, score, test plant Ipomoea (Ipomoea [6]) | Post-emergence action, score, Solanum (Solanum [7]) | Post-emergence action, score, Sinapis (Sinapis [8]) | Post-emergence action, score, Lolium (Lolium [9]) | Post-emergence action, score, Stellaria (Stellaria [10]) | Post-emergence action, score, Setaria (Setaria [11]) | Post-emergence action, score, Ipomoea (Ipomoea [12])
1 | 121 to 122 °C and 119 to 121 °C | C#CCOc1nc(-n2c(=O)cc(C(F)(F)F)n(C)c2=O)c(F)cc1Cl [1.022, 1-(2-propargyloxy-3-chloro-5-fluoropyridine-6-yl)-3-methyl-4-trifluoromethylpyrimidine-2,6-dione] | 1 | 1 | 1 | 1 | 1 | 1 | 1 | 1 | 1 | 1 | 1 | 1
2 | 192 to 193 °C | N#Cc1cc(F)c(N2C(=O)C3CCCCN3C2=O)nc1Cl (stereo not drawn) [Example H8, 2-(3-fluoro-6-chloro-5-cyano-2-pyridyl)tetrahydroimidazo[1,5-a]pyridine-1,3-dione] |  |  |  |  |  |  |  |  |  |  |  | 
3 | 200 to 202 °C | Cn1c(C(F)(F)F)cc(=O)n(-c2nc(O)c(Cl)cc2F)c1=O [1.002, 1-(2-hydroxy-3-chloro-5-fluoropyridine-6-yl)-3-methyl-4-trifluoromethylpyrimidine-2,6-dione] | 1 | 1 | 7 | 5 | 1 | 1 | 1 | 2 | 6 | 5 | 5 | 1
4 |  | CCOc1nc(-n2c(=O)cc(C(F)(F)F)n(C)c2=O)c(F)cc1Cl [1.017] | 1 | 1 | 1 | 1 | 1 | 1 | 1 | 1 | 1 | 1 | 1 | 1
5 |  | Cn1c(C(F)(F)F)cc(=O)n(-c2nc(OCc3ccccc3)c(Cl)cc2F)c1=O [1.026] | 1 | 1 | 1 | 3 | 1 | 1 | 1 | 1 | 3 | 3 | 3 | 1
6 |  | Cn1c(C(F)(F)F)cc(=O)n(-c2nc(Cl)c(Cl)cc2F)c1=O [1.396] | 1 | 1 | 1 | 1 | 1 | 1 | 1 | 1 | 3 | 3 | 3 | 1
